The results in this text go back to patent US9593108B2, “Compounds and methods for antiviral treatment” (PTC Therapeutics, Inc., priority 2009, dated 2017).

The subject of data set [1] is HCV replicon RNA (GenBank Accession No. AJ242654). In words: HCV Replicon Assay (replicon RNA reduction and/or Fluc reporter signal). Format: cell-based, Hepatitis C virus. The conditions noted are these: Hepatitis C virus, 72 h, replicon-containing cells cultured with test compound for up to 3 days. A digest of the protocol:
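IC50 values mostly reflect the drop in replicon RNA, though Fluc reporter signal may also be used. Compound incubated with cells carrying the bicistronic replicon for as long as 3 days; interferon served as positive control.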

Molecules are shown by their SMILES. Bounds are passed on as bounds.

Broadly, the melting point is the temperature, or range, at which the solid turns liquid. What is called IC50 is the concentration needed to halve the response being measured. A high value points to lower potency.

With `CC1(S(=O)(=O)Nc2ccc(-c3c(C(N)=O)c4cc(C(F)(F)F)cnc4n3C3CCCCC3)cc2)CC1` [Cpd 447, 1-cyclohexyl-2-(4-{[(1-methylcyclopropyl)sulfonyl]amino}phenyl)-5-(trifluoromethyl)-1H-pyrrolo[2,3-b]pyridine-3-carboxamide], the melting point was in the range of 268 to 270 °C. Also, the IC50 in data set [1] was below 0.5 µM.

Compound `NC(=O)c1c(-c2ccc(S(=O)(=O)NC3(C(F)(F)F)CC3)cc2)n(C2CCC2)c2ncc(C(F)(F)F)cc12` [Cpd 402, 1-cyclobutyl-5-(trifluoromethyl)-2-(4-{[1-(trifluoromethyl)cyclopropyl]sulfamoyl}phenyl)-1H-pyrrolo[2,3-b]pyridine-3-carboxamide] showed a melting point of 261 to 263 °C. This compound also displayed an IC50 in data set [1] below 0.5 µM.

`CC(C)(NS(=O)(=O)c1ccc(-c2c(C#N)c3cc(C4CC4)cnc3n2C2CCC2)cc1)C(F)(F)F` [Cpd 121, 4-(3-cyano-1-cyclobutyl-5-cyclopropyl-1H-pyrrolo[2,3-b]pyridin-2-yl)-N-(1,1,1-trifluoro-2-methylpropan-2-yl)benzenesulfonamide] showed a melting point of 207 to 212 °C. In data set [1], this compound displayed an IC50 below 0.5 µM.

Consider `Cc1cnc2c(C#N)c(-c3ccc(S(=O)(=O)N[C@H](C)C(F)(F)F)cn3)n(C3CCCC3)c2c1` [Cpd 171, 6-(3-cyano-1-cyclopentyl-6-methyl-1H-pyrrolo[3,2-b]pyridin-2-yl)-N-[(2R)-1,1,1-trifluoropropan-2-yl]pyridine-3-sulfonamide], for which the melting point lay in the range of 215 to 217 °C. The compound further showed an IC50 in data set [1] below 0.5 µM.

In turn, `Cc1cc2c(cn1)c(C#N)c(-c1ccc(S(=O)(=O)N[C@@H](C)C(F)(F)F)cc1)n2C1CCC1` [Cpd 30, 4-(3-cyano-1-cyclobutyl-6-methyl-1H-pyrrolo[3,2-c]pyridin-2-yl)-N-[(2S)-1,1,1-trifluoropropan-2-yl]benzenesulfonamide] registered a melting point of 248 to 249 °C. Moreover, the IC50 in data set [1] was below 0.5 µM.

For the compound `CCc1cnc2c(c1)c(C#N)c(-c1ccc(S(=O)(=O)NC(CF)CF)cn1)n2C1CCC1` [Cpd 191, 6-(3-cyano-1-cyclobutyl-5-ethyl-1H-pyrrolo[2,3-b]pyridin-2-yl)-N-(1,3-difluoropropan-2-yl)pyridine-3-sulfonamide], the melting point lay in the range of 157 to 165 °C. In data set [1], this compound yielded an IC50 of 0.5 to 2 µM.

In turn, `N#Cc1c(-c2ncc(S(=O)(=O)NC(CF)CF)cn2)n(C2CCC2)c2nc(OC(F)F)ccc12` [Cpd 55, 2-[3-cyano-1-cyclobutyl-6-(difluoromethoxy)-1H-pyrrolo[2,3-b]pyridin-2-yl]-N-(1,3-difluoropropan-2-yl)pyrimidine-5-sulfonamide] had a melting point of 234 to 236 °C. The compound further came in with an IC50 in data set [1] below 0.5 µM.

In turn, `Cc1ncc2c(C#N)c(-c3ccc(S(=O)(=O)N[C@@H](C)C(F)(F)F)cn3)n(C3CCCC3)c2n1` [Cpd 163, 6-(5-cyano-7-cyclopentyl-2-methyl-7H-pyrrolo[2,3-d]pyrimidin-6-yl)-N-[(2S)-1,1,1-trifluoropropan-2-yl]pyridine-3-sulfonamide] showed a melting point of 212 to 215 °C. In addition, in data set [1], the half-inhibitory concentration (IC50) lay within 0.5 to 2 µM.

For the compound `Cc1cnc2c(c1)c(C#N)c(-c1ncc(S(=O)(=O)NC(C)C)cn1)n2C1CCC1` [Cpd 78, 2-(3-cyano-1-cyclobutyl-5-methyl-1H-pyrrolo[2,3-b]pyridin-2-yl)-N-(propan-2-yl)pyrimidine-5-sulfonamide], the melting point fell in the range of 187 to 190 °C. Further, the IC50 in data set [1] is below 0.5 µM.

In turn, `N#Cc1c(-c2ccc(S(=O)(=O)NC3CCC3)cn2)n(C2CCC2)c2ncc(C(F)(F)F)cc12` [Cpd 302, 6-[3-cyano-1-cyclobutyl-5-(trifluoromethyl)-1H-pyrrolo[2,3-b]pyridin-2-yl]-N-cyclobutylpyridine-3-sulfonamide] returned a melting point of 197 to 199 °C. In addition, the 50% inhibitory concentration (IC50) in data set [1] is below 0.5 µM.

`CC(C)(NS(=O)(=O)c1ccc(-c2c(C#N)c3cc(C(F)(F)F)cnc3n2C2CCCCC2)nc1)C(F)(F)F` [Cpd 417, 6-[3-cyano-1-cyclohexyl-5-(trifluoromethyl)-1H-pyrrolo[2,3-b]pyridin-2-yl]-N-(1,1,1-trifluoro-2-methylpropan-2-yl)pyridine-3-sulfonamide] displayed a melting point of 177 to 179 °C. For the same compound, the IC50 in data set [1] was below 0.5 µM.

In turn, `COc1cnc2c(c1)c(C#N)c(-c1ncc(S(=O)(=O)NC(CF)CF)cn1)n2C1CCC1` [Cpd 11, 2-(3-cyano-1-cyclobutyl-5-methoxy-1H-pyrrolo[2,3-b]pyridin-2-yl)-N-(1,3-difluoropropan-2-yl)pyrimidine-5-sulfonamide] gave a melting point of 194 to 196 °C. In data set [1], this compound returned an IC50 of 0.5 to 2 µM.

As to `COc1cnc2c(c1)c(C#N)c(-c1ccc(S(=O)(=O)NC(C)(C)C)cn1)n2C1CCC1` [Cpd 271, N-tert-butyl-6-(3-cyano-1-cyclobutyl-5-methoxy-1H-pyrrolo[2,3-b]pyridin-2-yl)pyridine-3-sulfonamide], the melting point was in the range of 174 to 176 °C. Moreover, the IC50 in data set [1] was in the range of 0.5 to 2 µM.

For `CC(C)(C)NS(=O)(=O)c1ccc(-c2c(C(N)=O)c3cc(Cl)cnc3n2C2CCC2)cc1` [Cpd 393, 2-[4-(tert-butylsulfamoyl)phenyl]-5-chloro-1-cyclobutyl-1H-pyrrolo[2,3-b]pyridine-3-carboxamide], the melting point fell in the range of 269 to 270 °C. In data set [1], this compound gave an IC50 below 0.5 µM.

Take `C[C@H](NS(=O)(=O)c1ccc(-c2c(C(N)=O)c3cc(C(F)F)cnc3n2C2CCC2)nc1)C(F)(F)F` [Cpd 469, 1-cyclobutyl-5-(difluoromethyl)-2-(5-{[(2S)-1,1,1-trifluoropropan-2-yl]sulfamoyl}pyridin-2-yl)-1H-pyrrolo[2,3-b]pyridine-3-carboxamide]: the melting point was 206 to 208 °C. In data set [1], this compound had an IC50 below 0.5 µM.

In the case of `C[C@H](NS(=O)(=O)c1ccc(-c2c(C#N)c3cc(F)cnc3n2-c2ncc(F)cn2)nc1)C(F)(F)F` [Cpd 462, 6-[3-cyano-5-fluoro-1-(5-fluoropyrimidin-2-yl)-1H-pyrrolo[2,3-b]pyridin-2-yl]-N-[(2S)-1,1,1-trifluoropropan-2-yl]pyridine-3-sulfonamide], the melting point is 180 to 182 °C. In addition, the IC50 in data set [1] was below 0.5 µM.

`CC(C)(C)NS(=O)(=O)c1ccc(-c2c(C#N)c3cc(C(F)(F)F)cnc3n2C2CCCCC2)cc1` [Cpd 422, N-tert-butyl-4-[3-cyano-1-cyclohexyl-5-(trifluoromethyl)-1H-pyrrolo[2,3-b]pyridin-2-yl]benzenesulfonamide] yielded a melting point of 176 to 178 °C. The IC50 in data set [1] is below 0.5 µM.

On to `C[C@H](NS(=O)(=O)c1ccc(-c2c(C#N)c3cc(C4CC4)cnc3n2C2CCCC2)nc1)C(F)(F)F` [Cpd 250, 6-(3-cyano-1-cyclopentyl-5-cyclopropyl-1H-pyrrolo[2,3-b]pyridin-2-yl)-N-[(2S)-1,1,1-trifluoropropan-2-yl]pyridine-3-sulfonamide], for which the melting point is 157 to 167 °C. In data set [1], the IC50 was below 0.5 µM.

Compound `CC(C)(C)NS(=O)(=O)c1ccc(-c2c(C(N)=O)c3cc(F)cnc3n2-c2ccccc2)nc1` [Cpd 527, 2-[5-(tert-butylsulfamoyl)pyridin-2-yl]-5-fluoro-1-phenyl-1H-pyrrolo[2,3-b]pyridine-3-carboxamide] had a melting point of 275.2 to 276.9 °C. For the same compound, the 50% inhibitory concentration (IC50) in data set [1] lay in the range of 0.5 to 2 µM.
